These results are taken from US20030109571A1, “Thromboxane ligands without blood clotting side effects” (ALLERGAN SALES, INC., priority 1993, published 2003).

Marks after values point to notes of the source that are not given here.

Assay [1] deals with Platelets (Human). In words: Platelet aggregation in platelet-rich plasma from healthy human donors. Type of assay: cell-based. The following applies: for EC50 / Kb: Table 7; for EC50: read-out: EC50 Platelets aggreg; for Kb: antagonist, read-out: KB Platelets aggreg. How it is done: (§1) Activity at different prostanoid receptors was measured in vitro in isolated smooth muscle preparations. FP-activity was measured as contraction of the isolated feline iris sphincter. EP1-activity was measured as contraction of the longitudinal smooth muscle of the isolated guinea pig ileum. EP3-activity was measured as inhibition of the twitch response induced by electrical field stimulation in the isolated guinea pig was deferens and as contraction of the longitudinal smooth muscle of the isolated chick ileum. TP-vasoconstrictor activity was measured as contraction of rings of the isolated rat thoracic aorta. Effects on platelets from healthy human donors were measured by incubating platelet-rich plasma with the compounds described herein. Inhibition of aggregation was determined by the ability of the compounds described herein to inhibit platelet aggregation in platelet-rich plasma induced by 20 μM ADP.

Assay [2] can be described thus: Dog intraocular pressure, topical dosing, applanation pneumatonometry. The class given is in vivo. Conditions: for Intraocular pressure change: dog, dose 0.1%. How it is done: (§2) The compounds were prepared at the said concentrations in a vehicle comprising 0.1% polysorbate 80 and 10 mM TRIS base. Dogs and monkeys were treated by administering 25 ul to the ocular surface, the contralateral eye received vehicle as a control. Intraocular pressure was measured by applanation pneumatonometry. Experiments were performed with dogs and monkeys. Dog intraocular pressure was measured immediately before drug administration and at 2, 4 and 6 hour thereafter. Additional studies in monkeys were performed over a 5 day period and drug was administered at times 0, 6, 24, 30, 48, 54, 72, 78, and 96 hours. Monkey intraocular pressure was recorded just before drug administration on each day and at the 2 and 4 hour time intervals between dosing.

Assay [3] can be described thus: Monkey intraocular pressure, topical dosing over 5 days, applanation pneumatonometry. The class given is in vivo. Further details: Intraocular pressure change: unit not given beside the values. Conditions: for Intraocular pressure change: monkey, dose not given. On the procedure: as §2
In assay [4] the target is T1, TP-receptor (vascular, TPVASC) (Rattus norvegicus, UniProt P34978).
T1 construct: measured in vitro in isolated smooth muscle preparations; from tissue; host or cells: rings of isolated rat thoracic aorta
T1 sequence (P34978 1-341): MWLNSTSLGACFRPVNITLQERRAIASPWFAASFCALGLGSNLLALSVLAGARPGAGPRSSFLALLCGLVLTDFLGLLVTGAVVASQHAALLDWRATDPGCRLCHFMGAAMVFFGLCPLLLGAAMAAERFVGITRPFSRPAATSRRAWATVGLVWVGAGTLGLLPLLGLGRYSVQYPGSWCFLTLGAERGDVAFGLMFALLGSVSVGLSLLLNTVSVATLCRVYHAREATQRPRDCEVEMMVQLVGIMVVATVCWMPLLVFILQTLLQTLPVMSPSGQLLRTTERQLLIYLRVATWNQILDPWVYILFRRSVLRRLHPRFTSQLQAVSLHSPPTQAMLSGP
Description: TP-vasoconstrictor activity: contraction of rings of isolated rat thoracic aorta, without or with SQ29,548. Conditions: for EC50 / Kb: Table 7; for EC50: read-out: EC50 (Rat Aorta); for Kb: antagonist. On the procedure: as §1
In addition, inhibition by the thromboxane A2-receptor antagonist SQ29,548 ([1S-[1α, 2α (5Z), 3α, 4α]]-7-[3-[[2-[phenylamino)carbonyl]-hydrazino]methyl]-7-oxabicyclo[2.2.1] hept-2-yl]-5-heptenoic acid) of vasoconstrictor activity was investigated.

The test system of assay [5] is HPRP. Conditions: cited from earlier work; for Effect on HPRP: in words.
Assay [6] deals with vasculature. The following applies: in words; cited from earlier work.
The test system of assay [7] is platelets. Conditions: in words; cited from earlier work.
In assay [8] the test system is rat aorta. Conditions: read-out: CD50 contraction of isolated rat aorta; cited from earlier work.

On to “9,11-dideoxy-9α,11α-methanoepoxy prostaglandin F2α [Example U-46619, reference compound]”, for which the EC50 in assay [1] came to 320 nM. For the same compound, the “Agonist response, platelet aggregation” value in assay [1] (agonist alone at 3.3 × 10-7) is listed as 97.7 ± 1.6 % of max response; in assay [1] (agonist alone at 10-6) it was 100.0 ± 1.9 % of max response; in assay [1] (agonist alone at 10-7), −7.0 + 1.1 % of max response; in assay [1] (agonist alone at 10-8) it was 0 % of max response. Moreover, the Intraocular pressure change entry in assay [2] (2 HR after dosing) is on record as “+0.86”; in assay [2] (4 HR after dosing) it was “+1.75”; in assay [2] (6 HR after dosing), “+2.7”; in assay [3] (0 HR) it was 0; in assay [3] (2 HR) it was 2.0; in assay [3] (4 HR) it was 0.3. For the same compound, the Intraocular pressure change in assay [3] (6 HR) turned out to be 1.0. Besides, the “Effect on intraocular pressure” value in assay [2] (dogs, in words) is “increase in intraocular pressure”; in assay [3] (monkeys, in words) it was “increase in intraocular pressure”.

I-BOP [reference compound]: the EC50 in assay [4] was 2 nM; in assay [1] it was 214 nM.

For the compound “[1S-[1α, 2β(Z), 3(1E, 3R*), 5α]]-7-[3-(3-hydroxy-1-octenyl)-6,6-dimethylbicyclo[3.1.1]hept-2-yl]-5-hepten-1-ol [Example 20]”, in assay [4], the EC50 stood at 929 nM.

On to “[1R-[1α, 4α, 5β(Z), 6α(1E, 3S*)-7-[6-(3-hydroxy-1-octenyl)-2-oxabicyclo[2.2.1]hept-5-yl]-5-hepten-1-ol [Example 19]”, for which, in assay [4], the EC50 turned out to be 26 nM.

Take “[1S-[1α, 2α (5Z), 3α, 4α]]-7-[3-[[2-[phenylamino)carbonyl]-hydrazino]methyl]-7-oxabicyclo[2.2.1] hept-2-yl]-5-heptenoic acid [SQ29,548, reference compound]”: the Kb in assay [4] stood at 1.6 nM; in assay [1] it was 30.6 nM.

With “[1S-[1α, 2α(5Z), 3α, 4α]]-7-[3-[2(phenylamino)carbonyl]-hydrazino]methyl]-7-oxabicyclo [2.2.1]hept-2-yl]-5-hepten-1-ol [Example 22]”, the Kb is 18.2 nM in assay [4] and 4500 nM in assay [1].

As for `CCCCCC(/C=C/C1C2CC(OC(=O)O2)C1C/C=C\CCCC(=O)OCc1ccccc1)OC(=O)C(C)(C)C` (stereo not drawn) [Example 11, 7-16-carbobenzoxy-2-cis-hexenyl]-6-[3α-pivaloyloxy-1-trans-octenyl]-3-oxo-2,4-dioxobicyclo[3.2.11 octane], the Intraocular pressure change in assay [2] (2 HR after dosing) is given as −6.9**; in assay [2] (4 HR after dosing) it was −7.7**; in assay [2] (6 HR after dosing), −9.4**. In assay [5], the “Effect on HPRP” value is listed as “no effect”.

As for `CCCCCC(/C=C/C1C2CC(OC(=O)O2)C1C/C=C\CCCC(=O)O)OC(=O)C(C)(C)C` (stereo not drawn) [Example 12, 7-[6-carboxy-2-cis-hexenyl]-6-[3α-pivaloyloxy-1-trans-octenyl]-3-oxo-2,4-dioxobicyclo [3.2.1] Octane], the values for the Intraocular pressure change in assay [2] (2 HR after dosing), in assay [2] (4 HR after dosing) and in assay [2] (6 HR after dosing) were −3.8**, −4.7** and −6.9**, respectively. Further, the “Effect on HPRP” value in assay [5] is listed as “no effect”.

As for “[1S-[1α, 2α(Z), 3β(1E, 3S*), 4α]]-7-[3-(3-hydroxy-4-(4-iodophenoxy)-1-butenyl]-7-oxabicyclo[2.2.1]hept-2-yl]-5-hepten-1-ol [Example 21]”, the EC50 in assay [4] came out at 0.4 nM.

For “Pinane thromboxane A2 [reference compound]”, the EC50 in assay [4] worked out at 203 nM; in assay [1] it was 950 nM.

Consider `CCCCCC(/C=C/C1C2CC(OC(=O)O2)C1C/C=C\CCCC(=O)O)O[Si](C)(C)C(C)(C)C` (stereo not drawn) [Example 16, 7-[6-carboxy-2-cis-hexenyl]-6-[3α-t-butyldimethylsilyloxy-1-trans-octenyl]-3-oxo-2,4-dioxobicyclo [3.2.1] octane], for which the “Activity in contracting vascular smooth muscle” value in assay [4] (in words) is reported as “pronounced activity”. Moreover, the “Ability to cause platelet aggregation” value in assay [1] (in words) is on record as “no or minimal ability”. In assay [6], the “Action on the vasculature” value is “weak vasoconstrictor activity”. In assay [7], the Action on platelets result is listed as “No effect”.

For `CCCCC[C@H](O)/C=C/C1S[C@H]2CC(S2)[C@@H]1C/C=C\CCCC(=O)O` (stereo partly drawn) [Example 13], the IC50 in assay [5] (read-out: IC50 irreversible aggregation of HPRP) was 4300 nM. The EC50 in assay [8] was 0.7 nM.
